These results are taken from patent US10259796B2, “Oxaspiro[2.5]octane derivatives and analogs” (Zafgen, Inc., priority 2011, dated 2019).

One test deals with T1, MetAP2 enzyme (Mus musculus, UniProt O08663).
T1 construct: from tissue; host or cells: testes of diet-induced obese C57BL/6NTac mice
The experiment in a line: THX1 N-terminal peptide in mouse testes (MetAP2 inhibition in testes) after 10 days PO 3 mg/kg. The test is classed as in vivo. The note with it: mice, PO once a day for 10 days, testes taken 24 hours after last dose. How it is done:
Diet-induced obese mice, C57BL/6NTac mice, were dosed PO once a day for 10 days with 3 mg/kg of compound 201 (fumagillin), 202, 203, 231 and 233. On day 11, 24 hours after the last dose the mice are sacrificed and the testes are dissected out and frozen. The frozen testes are subsequently homogenized and subjected to endoproteinase Glu-C digestion. The resulting digest mixture is analyzed by LC-MS/MS to quantitate the level of the N-terminal peptide of thioredoxin (Thrx), amino acid 1-6. Thioredoxin is a selective substrate of the MetAP2 enzyme and the degree of unprocessed thioredoxin (amino acid 1-6 rather than the processed des-Met thioredoxin amino acid 2-6) is indicative of the level of MetAP2 inhibition in a given tissue.

Test [1] is described as follows: Body weight % difference, diet-induced obese mice dosed PO once a day for 10 days with 3 mg/kg. The test is classed as in vivo. Particulars: diet-induced obese C57BL/6NTac mice.

T1 sequence (O08663 whole entry): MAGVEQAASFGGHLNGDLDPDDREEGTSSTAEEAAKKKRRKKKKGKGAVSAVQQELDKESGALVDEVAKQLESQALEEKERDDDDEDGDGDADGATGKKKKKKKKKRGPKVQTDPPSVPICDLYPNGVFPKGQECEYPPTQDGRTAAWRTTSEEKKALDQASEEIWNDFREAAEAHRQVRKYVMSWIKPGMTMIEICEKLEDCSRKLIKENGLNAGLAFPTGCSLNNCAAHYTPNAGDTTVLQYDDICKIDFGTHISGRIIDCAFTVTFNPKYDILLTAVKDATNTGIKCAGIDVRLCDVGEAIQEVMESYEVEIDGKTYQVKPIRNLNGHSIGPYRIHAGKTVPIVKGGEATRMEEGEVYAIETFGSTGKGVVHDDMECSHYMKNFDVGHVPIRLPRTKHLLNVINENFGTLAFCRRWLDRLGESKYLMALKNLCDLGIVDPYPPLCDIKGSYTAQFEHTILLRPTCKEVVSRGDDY

For the compound `CO[C@@H]1[C@H](OC(=O)/C=C/C=C/C=C/C=C/C(=O)O)CC[C@]2(CO2)[C@H]1[C@@]1(C)O[C@@H]1CC=C(C)C` [compound 201, fumagillin, reference compound], the “inhibition of the enzyme (MetAP2) in the testes, by THX1 N-terminal peptide” value (from here on “inhibition of the enzyme (MetAP2)”) on MetAP2 enzyme is reported as “No inhibition”. In addition, in test [1], the “weight loss over 10 days of treatment” value was “robust weight loss”.

With `COC(=O)CCCCCCCCC(=O)O[C@@H]1CC[C@]2(CO2)[C@@H]([C@@]2(C)O[C@@H]2CC=C(C)C)[C@@H]1OC` [compound 205], the “inhibition of the enzyme (MetAP2)” value at MetAP2 enzyme is “No inhibition”. In addition, in test [1], the “weight loss over 10 days of treatment” value is given as “robust weight loss”.

With `CO[C@@H]1[C@H](OC(=O)CCCCCCCCC(=O)O)CC[C@]2(CO2)[C@H]1[C@@]1(C)O[C@@H]1CC=C(C)C` [compound 206], the “inhibition of the enzyme (MetAP2)” value at MetAP2 enzyme is given as “No inhibition”. In test [1], the “weight loss over 10 days of treatment” value was “robust weight loss”.

For the compound `CCCCCCCCCCC(=O)O[C@@H]1CC[C@]2(CO2)[C@@H]([C@@]2(C)O[C@@H]2CC=C(C)C)[C@@H]1OC` [compound 216], the “inhibition of the enzyme (MetAP2)” value on MetAP2 enzyme is reported as “No inhibition”. Also, in test [1], the “weight loss over 10 days of treatment” value is listed as “robust weight loss”.
